One may read the Ki as the equilibrium dissociation constant of an inhibitor or competing ligand from its target.

The source of these data is article PMC4121272, “Two β-Galactosidases from the Human Isolate Bifidobacterium breve DSM 20213: Molecular Cloning and Expression, Biochemical Characterization and Synthesis of Galacto-Oligosaccharides” (PLoS ONE, 2014).

The target in one assay is T1, β-gal II (Bifidobacterium breve, UniProt D4BR09).
T1 construct: gene BIFBRE_04539; full length, C-terminal His6 tag kept (pET-21a), E. coli T7 Express with GroEL/GroES, IMAC; calculated 116,594 Da; homodimer 211 kDa; GH2; N-terminus from primer MNTTDDQ, C-terminus before tag DVNLELI
T1 sequence (D4BR09 entry or part of it): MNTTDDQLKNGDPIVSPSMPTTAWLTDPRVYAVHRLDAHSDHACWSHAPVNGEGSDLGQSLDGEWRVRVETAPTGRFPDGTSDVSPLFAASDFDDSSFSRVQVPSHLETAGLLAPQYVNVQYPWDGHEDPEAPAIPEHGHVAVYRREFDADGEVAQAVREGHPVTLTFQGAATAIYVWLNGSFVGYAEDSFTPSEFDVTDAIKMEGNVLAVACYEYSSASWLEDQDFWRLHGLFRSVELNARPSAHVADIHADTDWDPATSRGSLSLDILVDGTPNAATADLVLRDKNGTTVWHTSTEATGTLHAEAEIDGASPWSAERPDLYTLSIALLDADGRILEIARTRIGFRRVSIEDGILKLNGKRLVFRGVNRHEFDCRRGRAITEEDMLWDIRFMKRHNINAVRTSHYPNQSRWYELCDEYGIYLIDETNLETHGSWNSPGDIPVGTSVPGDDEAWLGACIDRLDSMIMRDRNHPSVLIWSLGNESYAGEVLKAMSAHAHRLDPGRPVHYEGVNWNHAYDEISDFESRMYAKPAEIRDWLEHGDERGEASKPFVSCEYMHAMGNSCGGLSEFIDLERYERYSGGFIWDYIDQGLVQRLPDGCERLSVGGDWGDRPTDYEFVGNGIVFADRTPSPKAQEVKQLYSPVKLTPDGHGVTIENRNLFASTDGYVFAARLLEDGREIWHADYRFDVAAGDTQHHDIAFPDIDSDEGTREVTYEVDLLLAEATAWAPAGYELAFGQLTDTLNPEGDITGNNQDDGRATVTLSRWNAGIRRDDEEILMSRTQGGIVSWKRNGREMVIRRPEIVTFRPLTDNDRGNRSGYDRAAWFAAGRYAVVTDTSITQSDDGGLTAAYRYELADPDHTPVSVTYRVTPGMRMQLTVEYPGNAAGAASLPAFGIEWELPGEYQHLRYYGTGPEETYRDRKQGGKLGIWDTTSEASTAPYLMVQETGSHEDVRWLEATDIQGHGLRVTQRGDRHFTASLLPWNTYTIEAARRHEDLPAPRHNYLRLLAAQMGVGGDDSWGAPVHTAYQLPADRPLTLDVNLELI
Put plainly: oNPG hydrolysis, o-nitrophenol release at […] nm, nonlinear regression. It is filed as biochemical. The note with it: competitive vs oNPG; 50 mM sodium phosphate pH 6.5, 30°C.

Another assay has as its target T2, β-gal I (Bifidobacterium breve, UniProt D4BLG2).
T2 construct: gene BIFBRE_02894; full length, C-terminal His6 tag kept (pET-21a), E. coli T7 Express with GroEL/GroES, IMAC; calculated 116,127 Da; homodimer 220 kDa; GH2; N-terminus from primer MQGKAKT, C-terminus before tag DVTLELI
The description is as above. The assay is classed as biochemical. The note with it: competitive vs oNPG; 50 mM sodium phosphate pH 6.5, 30°C.

Each structure is given as a SMILES string.

T2 sequence (D4BLG2 entry or part of it): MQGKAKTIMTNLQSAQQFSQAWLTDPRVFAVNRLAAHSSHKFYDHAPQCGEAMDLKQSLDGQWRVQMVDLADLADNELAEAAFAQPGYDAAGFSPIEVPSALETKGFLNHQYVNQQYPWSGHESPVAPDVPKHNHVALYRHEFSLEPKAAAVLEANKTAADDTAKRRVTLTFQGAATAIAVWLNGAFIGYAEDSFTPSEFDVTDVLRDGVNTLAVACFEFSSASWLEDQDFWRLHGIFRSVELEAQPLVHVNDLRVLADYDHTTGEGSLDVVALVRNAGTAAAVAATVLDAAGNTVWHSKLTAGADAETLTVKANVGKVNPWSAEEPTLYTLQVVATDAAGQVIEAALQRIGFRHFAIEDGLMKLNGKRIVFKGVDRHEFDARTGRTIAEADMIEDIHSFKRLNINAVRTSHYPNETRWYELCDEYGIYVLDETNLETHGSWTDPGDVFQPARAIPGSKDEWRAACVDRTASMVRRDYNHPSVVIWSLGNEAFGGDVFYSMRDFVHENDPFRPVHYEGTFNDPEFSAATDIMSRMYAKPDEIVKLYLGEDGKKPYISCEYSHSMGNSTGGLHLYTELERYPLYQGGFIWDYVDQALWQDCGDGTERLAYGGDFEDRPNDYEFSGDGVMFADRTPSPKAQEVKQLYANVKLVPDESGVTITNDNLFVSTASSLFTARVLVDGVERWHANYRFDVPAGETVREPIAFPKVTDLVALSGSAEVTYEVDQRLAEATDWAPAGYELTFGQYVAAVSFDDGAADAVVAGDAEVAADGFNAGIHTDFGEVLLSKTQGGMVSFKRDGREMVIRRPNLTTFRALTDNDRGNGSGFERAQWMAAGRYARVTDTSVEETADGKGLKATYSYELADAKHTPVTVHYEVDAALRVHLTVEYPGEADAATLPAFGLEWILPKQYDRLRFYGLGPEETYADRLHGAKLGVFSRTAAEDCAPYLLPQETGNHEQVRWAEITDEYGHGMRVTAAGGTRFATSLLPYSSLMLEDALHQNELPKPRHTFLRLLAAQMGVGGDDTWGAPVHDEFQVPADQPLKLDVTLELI

As for `OC[C@H]1OC(O)[C@H](O)[C@@H](O)[C@@H]1O` (stereo partly drawn) [D-glucose], at β-gal II, the inhibitory constant (Ki) is 37 ± 4 mM.

In the case of `OC[C@H]1OC(O)[C@H](O)[C@@H](O)[C@H]1O` (stereo partly drawn) [D-galactose], the Ki on β-gal I turned out to be 15 ± 3 mM; on β-gal II, 34 ± 5 mM.
